From patent US6613937B2, “S-nitroso- and S-nitro-N-acyl-L-cysteine ester derivatives as pharmalogically active agents and pharmaceutical compositions containing said compounds” (priority 1999, dated 2003)

Assays:
[1] = In vivo metabolism of orally applied 15N-marked SNACET in the rat (urine, GC-MS); conditions: oral 17.5 mg/kg
Experimental: In vivo Metabolism of Orally Applied ^15N-marked S-nitroso-N-acetylcysteine ethyl ester (^15N-SNACET) in the Rat
A male Sprague Dawley rat weighing 480 g is orally given 17.5 mg of ^15N-marked S-nitroso-N-acetylcysteine ethyl ester (^15N-SNACET) per kg body weight, dissolved in 1 ml of a 10% (w/v) glucose solution in drinking water. Before and up to 24 hours after application, urine is collected and the ^15N-concentration of nitrate, nitrite and S-nitroso metabolites of ^15N-SNACET is determined by means of GC-MS.
Metabolism of orally applied ^15N-marked S-nitroso-N-acetylcysteine-ethylester (17.5 mg/kg body weight) in a rat. ^15N-concentration of nitrate, nitrite and for the sum of ^15N-marked S-nitroso-N-acetylcysteine ethyl ester and its metabolites collected in the urine before and up to 24 hours after the application.

[2] = tested on: human arteria mammaria; experiment: Relaxation of the human arteria mammaria in vitro; conditions: FIG. 1b
From the text: B. Relaxation of the Human Arteria Mammaria in vitro by S-nitroso-N-acetylcysteine ethyl ester and S-nitro-N-acetylcysteine ethyl ester
b. Relaxation of the human arteria mammaria in vitro by S-nitroso-N-acetylxysteine ethyl ester (SNACET) and S-nitro-N-acetylcysteine ethyl ester (SNO2ACET).

[3] = in vivo in an animal; cited from earlier work
[4] = tested on: human Corpus Cavernosum; experiment: Relaxation of the human Corpus Cavernosum in vitro; conditions: FIG. 1a
From the text: A. Relaxation of the Human Corpus Cavernosum in vitro by Means of S-nitroso-N-acetylcysteine ethyl ester, S-nitroso-N-(O-acetylsalicyl)cysteine ethyl ester and Their Metabolites
a. Relaxation of the human Corpus Cavernosum in vitro by S-nitroso-N-acetylcysteine-ethylester (SNACET), S-nitroso-N-(O-acetylsalicyl)cysteine ethyl ester (ASS-SNCET) and their metabolites SNCET and SNAC.

[5] = tested on: thromboxane synthesis in human blood platelets; experiment: Inhibition of collagen-induced thromboxane synthesis in washed human blood platelets in vitro; assay type: cell-based; conditions: Platelet, collagen-induced (2 μg/ml)
Experimental: (§1) Collagen-induced (2 μg/ml) aggregation and thromboxane synthesis in human blood platelets which have been washed are inhibited by SNACET in a concentration-dependent manner (FIG. 4a). The IC50s for the inhibition of the platelet aggregation and the thromboxane synthesis by SNACET are determined at 1 and 0.5 μM. Collagen-induced (2 μg/ml) aggregation of human blood platelets that have been washed is inhibited by ASS-SNCET in a concentration-dependent manner (FIG. 4b). The IC50 for the inhibition of the platelet aggregation by ASS-SNCET is determined at 2 μM (FIG. 4b).
(§2) a. Inhibition of the collagen-induced (2 μg/ml) aggregation of human blood platelets that have been washed and the thromboxane synthesis in the platelets in vitro by S-nitroso-N-acetylcysteine ethyl ester (SNACET).

[6] = tested on: human blood platelets; experiment: Inhibition of collagen-induced aggregation of washed human blood platelets in vitro; assay type: cell-based; conditions: Platelet, collagen-induced (2 μg/ml)
Experimental: Inhibition of the Aggregation of Human Blood Platelets in vitro by Means of S-nitroso-N-acetylcysteine ethyl ester (SNACET) and S-nitroso-N-(O-acetylsalicyl)cysteine ethyl ester (ASS-SNCET)
as §1, §2
b. Inhibition of the collagen-induced (2 μg/ml) aggregation of human blood platelets in vitro that have been washed by S-nitroso-N-(O-acetylsalicyl)cysteine ethyl ester (ASS-SNCET). The values are average values from analyses with platelets of four healthy subjects.

[7] = Penetration by human Tunica albuginea in vitro in a Franz' cell; assay type: in vitro ADME; conditions: SNACET in dimethyl sulphoxide, FIG. 2
Experimental: Penetration of S-nitroso-N-acetylsysteine ethyl ester (SNACET) by Human Tunica albuginea in vitro
Part of Tunica albuginea which has just been prepared is fixed in a Franz' cell. The active surface is 1.77 cm^2. The acceptor phase (10 ml) consists of Hank's buffer (pH 7.4), human albumin (30 g/l), penicillin G (100 units) and streptomycin (10 μg) and is stirred with a magnetic stirrer at a constant rotation speed. The penetration is started by application of solutions of SNACET in dimethyl sulphoxide at various concentrations (0.25 ml) on the part of the skin. At various points in time, samples are taken from the acceptor phase and the concentration of the sum from SNACET and its metabolites is determined. In the acceptor phase, unmodified SNACET and other metabolites including nitrite are detected. […] The penetration rate and the amount of the penetrated SNACET and their metabolites in the acceptor phase depend on the amount of SNACET applied onto the Tunica albuginea. The lag time is approximately 20 min. In the linear region, the penetration rates are 1.0, 2.5 or 5.0 μmol SNACET/hour.
Penetration of S-nitroso-N-acetylcysteine ethyl ester (SNACET) by human Tunica albuginea in vitro in a Franz' cell. Three different amounts dissolved in dimethyl sulphoxide (250 μl each) were applied (see Legend).

[8] = tested on: Sprague Dawley rat; experiment: Hypotensive effect in vivo in the rat (i.v. infusion, average artery blood pressure); conditions: anaesthetised male Sprague Dawley rat, FIG. 3
From the text: Hypotensive Effect of SNACET in vivo in the Rat
S-nitroso-N-acetylcysteine-ethylester (SNACET) is applied i.v. to a male, anaesthetised Sprague Dawley rat which has a weight of 400 g. Before and after the infusion, the average artery blood pressure is taken continuously.
Hypotensive effect of SNACET in vivo in the rat. SNACET was applied i.v. with the infusion rates stated.

[9] = in vitro and in vivo, humans; cited from earlier work
[10] = humans; cited from earlier work

For `CCOC(=O)[C@H](CS[15N]=O)NC(C)=O` [^15N-SNACET, ^15N-marked S-nitroso-N-acetylcysteine ethyl ester], the “Time of the highest 15N-concentration in urine” value [1] was “within the first two hours”, the “15N-concentration in the urine 24 hours after the administration” value ([1]; 24 hours) was “insignificantly higher than the natural occurrence of ^15N” and the “Main metabolite in urine” value ([1]; urine up to 24 hours) was “^15N-nitrate”. For the same compound, the “Secretion of unchanged compound and S-nitroso metabolites into the urine” value ([1]; urine up to 24 hours) was “neither ^15N-SNACET no other S-[^15N]nitroso-containing metabolites are secreted into the urine”.
For `CCOC(=O)[C@H](CS[N+](=O)[O-])NC(C)=O` [SNO2-ACET, S-nitro-N-acetylcysteine ethyl ester], the “Relaxation of human arteria mammaria” value [2] was “relax human arteria mammaria in vitro in a concentration-dependent manner”.
For “S-nitroso-N-acetyl penicillamines [SNAP]”, the Development of tolerance [3] is listed as “show no development of tolerance”.
In the case of `CC(=O)N[C@@H](CSN=O)C(=O)O` [SNAC, S-nitroso-N-acetylcysteine], the “Relaxation of human Corpus Cavernosum” value [4] is reported as “relax human Corpus Cavernosum in vitro in a concentration-dependent manner”.
In the case of `CCOC(=O)[C@@H](N)CSN=O` [SNCET, S-nitroso-cysteine ethyl ester], the “Relaxation of human Corpus Cavernosum” value [4] is reported as “relax human Corpus Cavernosum in vitro in a concentration-dependent manner”.
For `CCOC(=O)[C@H](CSN=O)NC(C)=O` [SNACET, S-nitroso-N-acetylcysteine ethyl ester], the “Relaxation of human arteria mammaria” value [2] was “relax human arteria mammaria in vitro in a concentration-dependent manner”, the IC50 [5] was 500 nM and the “Relaxation of human Corpus Cavernosum” value [4] was “relax human Corpus Cavernosum in vitro in a concentration-dependent manner”. For the same compound, the IC50 [6] was 1000 nM, the “Penetration of the Tunica albuginea” value [7] was “penetrates the Tunica albuginea” and the “Average artery blood pressure” value [8] was “the average artery blood pressure decreases in dependence on the infusion rate”.
In the case of `N[C@@H](CCC(=O)N[C@@H](CSN=O)C(=O)NCC(=O)O)C(=O)O` [S-nitroso glutathion, S-nitroso-L-glutathion], the “Anti-hypertensive and anti-aggregatory effect” value [9] is listed as “have an anti-hypertensive and an anti-aggregatory effect in humans” and the Rate of embolism [10] is listed as “reduces the rate of embolism in humans”.
